# Measurements taken from US20200113902A1, “COMPOSITIONS AND METHODS FOR TREATING CANCERS WITH COVALENT INHIBITORS OF CYCLIN-DEPENDENT KINASE 7 (CDK7)” (Syros Pharmaceuticals, Inc., priority 2017, published 2020).
# Experiments:
# [1] = tested on: MCL1 protein in OCI-AML3 cells; test: Western blot, AML cell line OCI-AML3; format: cell-based; settings: 50 nM
# Method: (§1) Cytotoxic cancer cell lines HCC70 and TOV21G, and cytostatic cancer cell lines T47D and COV318 were seeded in wells of a six-well dish at a density of 1×10^6 cells/well and allowed to adhere overnight. Cells were then treated with 50 nM of Compound 1 for 16 or 24 hours, or with DMSO (0 hours) representing a negative control. Cells were harvested and placed on ice, and resuspended in RIPA lysis buffer supplemented with protease and phosphatase inhibitors. Clarified lysates prepared with 4×LSD running buffer and boiled at 95° C. for 5 minutes. Equivalent amounts of sample (10 μg total protein) were run on a 4-12% Bis-Tris gel and transferred to a PDVF membrane for Western blotting using standard Western blotting protocols. Membranes were blocked with Licor TBS blocking buffer then probed with antibodies for BCL-XL, BCL-2, MCL1, BID, and GAPDH visualized using and Odyssey imager (FIGS. 23A and 23D).
# (§2) We next explored the expression of MCL1, BCL-XL and BCL2 in four different AML cell lines. MV411, OCI-AML3 and KG1 cells were separately grown and prepared as described in Example 2 for Western blotting, using antibodies specific for BCL2 (FIG. 24A), BCL-XL, MCL-1 and tubulin as an internal control (FIG. 24B).
# [2] = tested on: MCL1 protein in KG1 cells; test: Western blot, AML cell line KG1; format: cell-based; settings: 50 nM
# Method: as §1, §2
# BR5013 xenografts = test: TNBC patient-derived xenograft BR5013, tumor volume; format: in vivo, mouse; settings: 40 mg/kg or 30 mg/kg i.v. BIW
# Method: (§3) Patient-derived xenograft (PDX) models from TNBC patients (BR5010, BR5013, BR5015, and BR5023) were established in NOD-SCID mice at Crown Bioscience (San Diego, USA). Cryo vials containing tumor cells were thawed and prepared for injection into mice. Cells were washed in PBS, counted, and resuspended in cold PBS at a concentration of 50,000-100,000 viable cells/100 ul. Cell suspensions were mixed with an equal volume of Cultrex ECM and kept on ice during transport to the vivarium. Cells were prepared for injections by withdrawing ECM-Cell mixture into a chilled slip-tip syringe fitted with a 26G 7/8 (0.5 mm×22 mm) needle. The filled syringes were kept on ice to avoid the solidification of ECM. Each mouse was inoculated subcutaneously in the right flank with 200 uL of the cell suspension. Tumor sizes were measured in two dimensions using a caliper, and the volumes were expressed in mm^3 using the formula: V=0.5 a×b^2, where a and b are the longest and shortest diameters of the tumor, respectively. Compound 1 treatment was started when the average tumor size reached 150-200 mm^3.
# (§4) Compound 1 was formulated in w/v 20% Captisol (pH 4-6) and administered by i.v. twice weekly (BIW) at a final dose of 40 mg/kg or 30 mg/kg in a 10 ml/kg volume. Tumor volumes were measured twice weekly over the course of the study. […]
# OV15398 xenograft = test: Ovarian PDX OV15398, tumor volume; format: in vivo, mouse; settings: OV15398 (very low CDKN2A); 40 or 30 mg/kg i.v. BIW
# Method: as §3, with “from ovarian carcinoma” for “from TNBC”, “patients (OV5387, OV14702, OV14972, OV15398, OV15576, OV15696, OV15612, OV15631)” for “patients (BR5010, BR5013, BR5015, and BR5023)”, “in mm3” for “in mm^3”, “V=0.5 a×b^2” for “V=0.5 a×b^2,”
# as §4
# [3] = tested on: homologous recombination deficiency / carboplatin sensitivity genes in OvCar3 cells; test: Nanostring PanCancer Pathways mRNA, OvCar3; format: cell-based; settings: 50 nM, 16 hours
# Method: (§5) Ovarian Cell lines OvCar3, TOV21G, A2780 and COV318 were plated at 500,000 cells/well in a 6-well plate the day before treatment. The next day the cells were treated with vehicle or 50 nM Compound 1 for 0, 6, or 16 hours after which cells were harvested and total RNA collected using RNeasy mini kit (Qiagen). Changes in mRNA between samples were analyzed with Nanostring™ PanCancer Pathways Panels specifically analyzing genes related to homologous recombination deficiency and carboplatin sensitivity (ie. BRCA1, BRCA2, Rad51, ATM, ATR, MSH2, MSH6). Nanostring signal intensities were first normalized to housekeeping genes across all cell lines, and then normalized to the 0 hour timepoint within a cell line.
# [4] = tested on: homologous recombination deficiency / carboplatin sensitivity genes in COV318 cells; test: Nanostring PanCancer Pathways mRNA, COV318; format: cell-based; settings: 50 nM, 16 hours
# Method: as §5
# HR^+ breast cancer cells = test: Inhibition of HR^+ breast cancer cells in vitro (data not shown); format: cell-based; settings: including cells with acquired resistance to aromatase inhibitors and cells no longer responding to CDK4/6 inhibitors
# [5] = tested on: Rad51, CHEK1 and CHEK2 RNA in THP1 cells; test: Microarray RNA levels of DNA damage repair genes, THP1; format: cell-based; settings: THP1 AML cells; 100 nM, 6 hrs
# Method: THP1 is an AML cell line. THP1 cells (1×10^6/well) were plated in 6-well plates and treated with vehicle (DMSO), 100 nM Compound 1, 25 nM NVP2 (a CDK9 inhibitor), 250 nM JQ1 (a BRD4 inhibitor) or 200 nM Flavopiridol (a pan-CDK inhibitor) for 6 hrs, after which cells were harvested and total RNA (1,000 ng) isolated. RNA levels of the DNA damage repair genes Rad51, CHEK1 and CHEK2 were analyzed by microarray. Experiments were done in triplicates. We performed RMA normalization of the data using the “affy” package from Bioconductor. The command used is shown below and includes background correction, normalization and summarization:
# Next, we performed loess normalization using only spike-ins to enable comparison of expression values across multiple samples.
smiles,measurement,setting,value
"CN(C)C/C=C/C(=O)Nc1ccc(C(=O)N[C@@]2(C)CCC[C@@H](Nc3ncc(Cl)c(-c4c[nH]c5ccccc45)n3)C2)nc1 [Compound 1, N-((1S,3R)-3-(5-chloro-4-(1H-indol-3-yl)pyrimidin-2-ylamino)-1-methylcyclohexyl)-5-((E)-4-(dimethylamino)but-2-enamido)picolinamide]",MCL1 protein level (Western blot),[1],significant reduction in MCL1
same,MCL1 protein level (Western blot),[2],significant reduction in MCL1
same,Tumor growth vs untreated historical samples,BR5013 xenografts,little inhibitory effect on tumor growth
same,Response to treatment (tumor growth),OV15398 xenograft,responded
same,"mRNA of genes related to homologous recombination deficiency and carboplatin sensitivity, all genes except Rad51 (BRCA1, BRCA2, ATM, ATR, MSH2, MSH6)",[3],downregulated
same,"mRNA of genes related to homologous recombination deficiency and carboplatin sensitivity, all genes except Rad51 (BRCA1, BRCA2, ATM, ATR, MSH2, MSH6)",[4],downregulated
same,Inhibition of HR^+ breast cancer cells in vitro,HR^+ breast cancer cells,inhibits many HR^+ breast cancer cells in vitro
same,"mRNA expression from genes involved in DNA repair (Rad51, CHEK1, CHEK2)",[5],Downregulation
